According to PMC5548701, “Selective targeting of melanoma using N-(2-diethylaminoethyl) 4-[^18F]fluoroethoxy benzamide (4-[^18F]FEBZA): a novel PET imaging probe” (EJNMMI Research, 2017):
Several values for one entry are separate records, joined by “and”; a condition that tells them apart may be missing. Identical values can stand only once.

Experiments:
[1] = system: B16F1 melanoma cells; experiment: in vitro cell binding, influence of incubation time and temperature; assay type: cell-based, murine; conditions: 2.5 × 10^5 cells/well, percent of total radioactivity added
Method: The in vitro cell binding was assessed by growing B16F1 cells in culture flasks to 80–90% confluence, trypsinizing, washing in PBS (pH 7.4), aliquoting into 12-well plates and allowing adherence to the wells overnight. Initially, we studied the influence of the incubation time and temperature on the binding to B16F1 melanoma cells. For this study, 12-well plates containing ~2.5 × 10^5 cells/well were incubated at 0, 22, and 37 °C with 4-[^18F]FEBZA in quadruplicate sets for 15, 30, 60, 120, and 180 min. After the incubation, the media were removed, and each well was washed with fresh ice-cold media (2 × 2 mL). The adherent cells were removed by lysing cells in 500 μL of PBS containing 10% Triton X-100 (Sigma-Aldrich, St. Louis, MO). The combined washes and lysate were analyzed for radioactivity content using a γ-counter.

[2] = system: B16F1 cells; experiment: internalization assay (acid wash); assay type: cell-based, murine; conditions: 37 °C
Method: Next, we evaluated the binding characteristics of 4-[^18F]FEBZA to B16F1 cells through internalization experiments. The cells were treated with a low pH buffer to sequester membrane-bound radioactivity (acid wash-releasable) from the internalized (acid wash-resistant) fraction. For this assay, 4-[^18F]FEBZA was added to 12-well plates with each well containing 4 × 10^5 B16F1cells/well (in quadruplicate), and the plates were incubated at 37 °C for 15, 30, 60, 120, and 180 min. After the incubation, the media were removed, each well was washed with ice-cold PBS (2 × 1 mL), and the washes were collected in the tubes. Subsequently, each well was gently treated with 1 mL of an ice-cold mildly acidic medium (sodium acetate buffer, pH 4.5) to remove surface-bound radioactivity, and the rinses were collected in tubes (acidic wash). The adherent cells were then lysed using 500 μL of 10% Triton X-100 in PBS, and the lysate was transferred into tubes. The total radioactivity in each of the lysate, acidic wash, and the PBS wash was measured using a γ-counter.

[3] = system: B16F1 melanoma tumor xenografts; experiment: biodistribution in mice bearing B16F1 tumor xenografts; assay type: in vivo, C57BL/6 mice; conditions: for tumor-to-brain tissue ratio: B16F1 group; for Adrenals %IA/g tissue (mean ± SD) / Blood %IA/g tissue (mean ± SD) / Bone %IA/g tissue (mean ± SD) / Brain %IA/g tissue (mean ± SD) / Heart %IA/g tissue (mean ± SD) / Kidneys %IA/g tissue (mean ± SD) / Liver %IA/g tissue (mean ± SD) / Lung %IA/g tissue (mean ± SD) / Muscles %IA/g tissue (mean ± SD) / Pancreas %IA/g tissue (mean ± SD) / Sm. Intestine %IA/g tissue (mean ± SD) / Spleen %IA/g tissue (mean ± SD): B16F1 tumor mice; for Tumor %IA/g tissue (mean ± SD): B16F1 tumor
Method: (§1) B16F1 melanoma cells, HT-29 human colorectal adenocarcinoma cells, and C-32 amelanotic melanoma cells were purchased from the American Type Culture Collection (ATCC, Rockville, MD). B16F1 murine melanotic melanoma cells were maintained in Dulbecco’s modified Eagles medium supplemented with 10% fetal calf-serum, 2 mM L-glutamine, and 1 mM pyruvate. HT-29 and C-32 cells were maintained in RPMI supplemented with 10% fetal calf serum and 2 mM L-glutamine. C57BL/6 and athymic nu/nu mice were purchased from Charles River Laboratories (Charles River Laboratories, Boston, MA). All animal studies were performed using an IACUC-approved protocol, and the work was performed under the guidelines established by Wake Forest University. The cells were grown to confluency, harvested, washed with phosphate-buffered saline and then were suspended in a 1:1 mixture of phosphate-buffered saline and Matrigel (BD Life Sciences, San Jose, CA) at a concentration of 5 × 10^6 cells/mL. For subcutaneous tumor xenografts, […] in the right flank with 100 μL of a suspension of B16F1 cells, and female athymic nu/nu mice were injected in the right flank with 100 μL of HT-29 cells or C-32 cells.
(§2) The biodistribution studies were performed in mice bearing B16F1 (1 h n = 5; 2 h n = 6), C-32 (1 h n = 3; 2 h n = 3), and HT-29 (1 h n = 3; 2 h n = 3) tumor xenografts. The tumor-bearing mice were injected with ~40 μCi of 4-[^18F]FEBZA. A separate group of normal C57BL/6 mice with no tumor implants (1 h n = 3; 2 h n = 3) was also injected with ~40 μCi of 4-[^18F]FEBZA to study the distribution characteristics of 4-[^18F]FEBZA in the absence of tumors. At 1 h and 2 h post-injection, the mice were euthanized, and the tissues of interest were removed, rinsed with PBS, weighed, and counted for radioactivity contents using a γ-counter.

[4] = system: C-32 amelanotic melanoma tumor xenografts; experiment: biodistribution in mice bearing C-32 tumor xenografts; assay type: in vivo, athymic nu/nu mice; conditions: for Adrenals %IA/g tissue (mean ± SD) / Blood %IA/g tissue (mean ± SD) / Bone %IA/g tissue (mean ± SD) / Brain %IA/g tissue (mean ± SD) / Heart %IA/g tissue (mean ± SD) / Kidneys %IA/g tissue (mean ± SD) / Liver %IA/g tissue (mean ± SD) / Lung %IA/g tissue (mean ± SD) / Muscles %IA/g tissue (mean ± SD) / Pancreas %IA/g tissue (mean ± SD) / Sm. Intestine %IA/g tissue (mean ± SD) / Spleen %IA/g tissue (mean ± SD): C-32 tumor mice; for Tumor %IA/g tissue (mean ± SD): C-32 tumor
Method: as §1, §2

## CCN(CC)CCNC(=O)c1ccc(OCC[18F])cc1 [4-[^18F]FEBZA, N-(2-diethylaminoethyl) 4-[^18F]fluoroethoxybenzamide]
[1]; 22 °C
  total binding to B16F1 cells: 44.45 ± 0.61%
[1]; 37 °C, 1 h incubation
  total binding to B16F1 cells: 60.03 ± 0.48%
[2]
  internalized fraction of cell-associated radioactivity: Majority of the cell-associated radioactivity is internalized
  time at which internalized fraction reached plateau: about 120 min
[2]; all time points (15-180 min)
  cell surface bound fraction: < 1%
[3]; 1 h
  tumor-to-brain tissue ratio: 3.55 ± 0.80
[3]; 2 h
  tumor-to-brain tissue ratio: 3.45 ± 0.81
[3]; B16F1 mice group, 2 h
  tumor-to-muscle ratio: 6.64 ± 1.11
[3]; 1 h post-injection
  Adrenals %IA/g tissue (mean ± SD): 1.10 ± 0.36 %IA/g tissue
  Blood %IA/g tissue (mean ± SD): 3.06 ± 0.52 %IA/g tissue
  Bone %IA/g tissue (mean ± SD): 3.78 ± 0.45 %IA/g tissue
  Brain %IA/g tissue (mean ± SD): 2.55 ± 0.61 %IA/g tissue
  Heart %IA/g tissue (mean ± SD): 2.82 ± 0.25 %IA/g tissue
  Kidneys %IA/g tissue (mean ± SD): 3.10 ± 0.28 %IA/g tissue
  Liver %IA/g tissue (mean ± SD): 3.25 ± 0.34 %IA/g tissue
  Lung %IA/g tissue (mean ± SD): 2.12 ± 0.17 %IA/g tissue
  Muscles %IA/g tissue (mean ± SD): 1.51 ± 0.21 %IA/g tissue
  Pancreas %IA/g tissue (mean ± SD): 2.48 ± 0.35 %IA/g tissue
  Sm. Intestine %IA/g tissue (mean ± SD): 2.48 ± 0.35 %IA/g tissue and 2.49 ± 0.25 %IA/g tissue
  Spleen %IA/g tissue (mean ± SD): 2.24 ± 0.36 %IA/g tissue
  Tumor %IA/g tissue (mean ± SD): 8.66 ± 1.02 %IA/g tissue
[3]; 2 h post-injection
  Adrenals %IA/g tissue (mean ± SD): 0.88 ± 0.06 %IA/g tissue
  Blood %IA/g tissue (mean ± SD): 2.51 ± 0.93 %IA/g tissue
  Bone %IA/g tissue (mean ± SD): 5.45 ± 0.98 %IA/g tissue
  Brain %IA/g tissue (mean ± SD): 2.25 ± 0.50 %IA/g tissue
  Heart %IA/g tissue (mean ± SD): 2.12 ± 0.58 %IA/g tissue
  Kidneys %IA/g tissue (mean ± SD): 2.20 ± 0.38 %IA/g tissue
  Liver %IA/g tissue (mean ± SD): 2.28 ± 0.49 %IA/g tissue
  Lung %IA/g tissue (mean ± SD): 1.49 ± 0.49 %IA/g tissue
  Muscles %IA/g tissue (mean ± SD): 1.14 ± 0.21 %IA/g tissue
  Pancreas %IA/g tissue (mean ± SD): 1.73 ± 0.14 %IA/g tissue
  Sm. Intestine %IA/g tissue (mean ± SD): 1.60 ± 0.31 %IA/g tissue
  Spleen %IA/g tissue (mean ± SD): 1.58 ± 0.18 %IA/g tissue
  Tumor %IA/g tissue (mean ± SD): 7.47 ± 1.34 %IA/g tissue
[4]; C-32 mice group, 2 h
  tumor-to-muscle ratio: 2.43 ± 0.14
[4]; 1 h post-injection
  Adrenals %IA/g tissue (mean ± SD): 1.26 ± 0.39 %IA/g tissue
  Blood %IA/g tissue (mean ± SD): 3.22 ± 0.64 %IA/g tissue
  Bone %IA/g tissue (mean ± SD): 3.47 ± 0.78 %IA/g tissue
  Brain %IA/g tissue (mean ± SD): 1.87 ± 0.21 %IA/g tissue
  Heart %IA/g tissue (mean ± SD): 2.52 ± 0.15 %IA/g tissue
  Kidneys %IA/g tissue (mean ± SD): 2.85 ± 0.37 %IA/g tissue
  Liver %IA/g tissue (mean ± SD): 3.11 ± 0.49 %IA/g tissue
  Lung %IA/g tissue (mean ± SD): 1.94 ± 0.67 %IA/g tissue
  Muscles %IA/g tissue (mean ± SD): 2.35 ± 1.06 %IA/g tissue
  Pancreas %IA/g tissue (mean ± SD): 2.49 ± 0.42 %IA/g tissue
  Sm. Intestine %IA/g tissue (mean ± SD): 2.23 ± 0.21 %IA/g tissue
  Spleen %IA/g tissue (mean ± SD): 1.96 ± 0.38 %IA/g tissue
  Tumor %IA/g tissue (mean ± SD): 3.91 ± 0.23 %IA/g tissue
[4]; 2 h post-injection
  Adrenals %IA/g tissue (mean ± SD): 0.77 ± 0.18 %IA/g tissue
  Blood %IA/g tissue (mean ± SD): 2.40 ± 0.30 %IA/g tissue
  Bone %IA/g tissue (mean ± SD): 5.09 ± 0.72 %IA/g tissue
  Brain %IA/g tissue (mean ± SD): 1.36 ± 0.17 %IA/g tissue
  Heart %IA/g tissue (mean ± SD): 1.75 ± 0.35 %IA/g tissue
  Kidneys %IA/g tissue (mean ± SD): 1.84 ± 0.12 %IA/g tissue
  Liver %IA/g tissue (mean ± SD): 1.99 ± 0.12 %IA/g tissue
  Lung %IA/g tissue (mean ± SD): 1.33 ± 0.35 %IA/g tissue
  Muscles %IA/g tissue (mean ± SD): 1.05 ± 0.14 %IA/g tissue
  Pancreas %IA/g tissue (mean ± SD): 1.40 ± 0.10 %IA/g tissue
  Sm. Intestine %IA/g tissue (mean ± SD): 1.33 ± 0.06 %IA/g tissue
  Spleen %IA/g tissue (mean ± SD): 1.22 ± 0.08 %IA/g tissue
  Tumor %IA/g tissue (mean ± SD): 2.53 ± 0.19 %IA/g tissue
